The text below walks through data of patent US11084800B2 (Achillion Pharmaceuticals, Inc., priority 2017, dated 2021).

Chain of Human Factor D (P00746 26-253): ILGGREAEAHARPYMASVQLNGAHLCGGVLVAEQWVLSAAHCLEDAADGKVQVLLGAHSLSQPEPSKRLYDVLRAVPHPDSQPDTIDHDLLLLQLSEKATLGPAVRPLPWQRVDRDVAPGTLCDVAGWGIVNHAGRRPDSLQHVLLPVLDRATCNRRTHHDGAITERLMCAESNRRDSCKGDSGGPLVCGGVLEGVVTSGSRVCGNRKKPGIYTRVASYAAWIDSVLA

One assay deals with Human Factor D (Homo sapiens (Human), UniProt P00746). Put plainly: Human Factor D Assay. In kind it is biochemical. As to conditions: Factor D inhibition, assay of Example 10; read-out: IC5 (Stars). Put shortly:
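Thioester substrate Z-L-Lys-SBz (100 μM) with Ellman's reagent DTNB (100 μM) reports activity of 80 nM human serum-derived enzyme, kinetically at 405 nm over 30 min. Compound preincubated 5 min, room temperature, pH 7.5 Tris/1 M NaCl; IC50 by nonlinear fit of rates.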
For the molecule `CC(=O)c1nn(CC(=O)N2[C@H](C(=O)Nc3nc(Br)ccc3C)C[C@@]3(C)C[C@@H]23)c2cc(C)c(-c3cnc(C)nc3)cc12` [Compound 373, (1R,3S,5R)-2-(2-(3-acetyl-6-methyl-5-(2-methylpyrimidin-5-yl)-1H-indazol-1-yl)acetyl)-N-(6-bromo-3-methylpyridin-2-yl)-5-methyl-2-azabicyclo[3.1.0]hexane-3-carboxamide], the IC50 was under 1000 nM.
The same measure, in the same setting: to `CC(=O)c1nn(CC(=O)N2[C@H](C(=O)Nc3nc(Br)ccc3C)C[C@@]3(CCN(C)C)C[C@@H]23)c2c(CF)cc(-c3cnc(C)nc3)cc12` [Compound 377, (1R,3S,5R)-2-(2-(3-acetyl-7-(fluoromethyl)-5-(2-methylpyrimidin-5-yl)-1H-indazol-1-yl)acetyl)-N-(6-bromo-3-methylpyridin-2-yl)-5-(2-(dimethylamino)ethyl)-2-azabicyclo[3.1.0]hexane-3-carboxamide] belongs under 1000 nM; to `CC(=O)c1nn(CC(=O)N2[C@H](C(=O)Nc3nc(Br)ccc3C)C[C@@]3(CCCCN(C)C)C[C@@H]23)c2c(CF)cc(-c3cnc(C)nc3)cc12` [Compound 378, (1R,3S,5R)-2-(2-(3-acetyl-7-(fluoromethyl)-5-(2-methylpyrimidin-5-yl)-1H-indazol-1-yl)acetyl)-N-(6-bromo-3-methylpyridin-2-yl)-5-(4-(dimethylamino)butyl)-2-azabicyclo[3.1.0]hexane-3-carboxamide], under 1000 nM.
For the molecule `CC(=O)c1nn(CC(=O)N2[C@H](C(=O)Nc3nc(C(F)(F)F)ccc3C)C[C@@]3(CCCN(C)C)C[C@@H]23)c2c(CF)cc(-c3cnc(C)nc3)cc12` [Compound 380, (1R,3S,5R)-2-(2-(3-acetyl-7-(fluoromethyl)-5-(2-methylpyrimidin-5-yl)-1H-indazol-1-yl)acetyl)-5-(3-(dimethylamino)propyl)-N-(3-methyl-6-(trifluoromethyl)pyridin-2-yl)-2-azabicyclo[3.1.0]hexane-3-carboxamide], the IC50 is under 1000 nM.
Still for that read-out and setting: then `CC(=O)c1nn(CC(=O)N2[C@H](C(=O)Nc3nc(Br)ccc3C)C[C@@]3(COC(F)F)C[C@@H]23)c2cnc(-c3cnc(C)nc3)cc12` [Compound 384, (1R,3S,5S)-2-(2-(3-Acetyl-5-(2-methylpyrimidin-5-yl)-1H-pyrazolo[3,4-c]pyridin-1-yl)acetyl)-N-(6-bromo-3-methylpyridin-2-yl)-5-((difluoromethoxy)methyl)-2-azabicyclo[3.1.0]hexane-3-carboxamide], with under 1000 nM; and `CC(=O)c1nn(CC(=O)N2[C@H](C(=O)Nc3nc(Br)ccc3Cl)C[C@@]3(C)C[C@@H]23)c2ccc(-c3cnc(C)nc3)cc12` [Compound 386, (1R,3S,5R)-2-(2-(3-acetyl-5-(2-methylpyrimidin-5-yl)-1H-indazol-1-yl)acetyl)-N-(6-bromo-3-chloropyridin-2-yl)-5-methyl-2-azabicyclo[3.1.0]hexane-3-carboxamide], with under 1000 nM; and `CC(=O)c1nn(CC(=O)N2C[C@H]3C[C@H]3[C@H]2C(=O)Nc2nc(Br)ccc2C)c2c(C(C)C)nc(-c3cnc(C)nc3)cc12` [Compound 388, (1R,25,5S)-3-(2-(3-acetyl-7-isopropyl-5-(2-methylpyrimidin-5-yl)-1H-pyrazolo[3,4-c]pyridin-1-yl)acetyl)-N-(6-bromo-3-methylpyridin-2-yl)-3-azabicyclo[3.1.0]hexane-2-carboxamide], with under 1000 nM.
Consider `Cc1ncc(-c2ccc3c(c2)c(C(=O)c2ncc[nH]2)nn3CC(=O)N2[C@H](C(=O)Nc3nc(Br)ccc3C)C[C@@]3(C)C[C@@H]23)cn1` [Compound 389, (1R,3S,5R)-2-(2-(3-(1H-Imidazole-2-carbonyl)-5-(2-methylpyrimidin-5-yl)-1H-indazol-1-yl)acetyl)-N-(6-bromo-3-methylpyridin-2-yl)-5-methyl-2-azabicyclo[3.1.0]hexane-3-carboxamide], for which the IC50 was over 10000 nM.
Still for that read-out and setting: then `CC(=O)c1nn(CC(=O)N2C[C@H]3C[C@H]3[C@H]2C(=O)Nc2nc(Br)c(F)cc2C)c2c(C)nc(-c3cnc(C)nc3)cc12` [Compound 393, (1R,2S,5S)-3-(2-(3-acetyl-7-methyl-5-(2-methylpyrimidin-5-yl)-1H-pyrazolo[3,4-c]pyridin-1-yl)acetyl)-N-(6-bromo-5-fluoro-3-methylpyridin-2-yl)-3-azabicyclo[3.1.0]hexane-2-carboxamide], with under 1000 nM; and `COc1cc2c(cc1-c1cnc(C)nc1)c(C(C)=O)nn2CC(=O)N1[C@H](C(=O)Nc2nc(Br)ccc2C)C[C@@]2(C)C[C@@H]12` [Compound 394, (1R,3S,5R)-2-(2-(3-acetyl-6-methoxy-5-(2-methylpyrimidin-5-yl)-1H-indazol-1-yl)acetyl)-N-(6-bromo-3-methylpyridin-2-yl)-5-methyl-2-azabicyclo[3.1.0]hexane-3-carboxamide], with under 1000 nM.
Same read-out and setting: then `COC(=O)c1cc2c(cc1-c1cnc(C)nc1)c(C(C)=O)nn2CC(=O)N1[C@H](C(=O)Nc2nc(Br)ccc2C)C[C@@]2(C)C[C@@H]12` [Compound 395, methyl 3-acetyl-1-(2-((1R,3S,5R)-3-((6-bromo-3-methylpyridin-2-yl)carbamoyl)-5-methyl-2-azabicyclo[3.1.0]hexan-2-yl)-2-oxoethyl)-5-(2-methylpyrimidin-5-yl)-1H-indazole-6-carboxylate], with under 1000 nM; and `CC(=O)c1nn(CC(=O)N(C(=O)[C@@H]2C[C@@]3(C)C[C@H]3N2)c2nc(Br)ccc2CN(CCC(F)(F)F)CCC(F)(F)F)c2cnc(-c3cnc(C)nc3)cc12` [Compound 396, (1R,3S,5R)-2-(2-(3-acetyl-5-(2-methylpyrimidin-5-yl)-1H-pyrazolo[3,4-c]pyridin-1-yl)acetyl)-N-(3-((bis(3,3,3-trifluoropropyl)amino)methyl)-6-bromopyridin-2-yl)-5-methyl-2-azabicyclo[3.1.0]hexane-3-carboxamide], with under 1000 nM.
For `CC(=O)c1nn(CC(=O)N2[C@H](C(=O)Nc3nc(Br)ccc3Cc3nn[nH]n3)C[C@@]3(C)C[C@@H]23)c2cnc(-c3cnc(C)nc3)cc12` [Compound 397, (1R, 3S, 5R)—N-(3-((2H-Tetrazol-5-yl)methyl)-6-bromopyridin-2-yl)-2-(2-(3-acetyl-5-(2-methylpyrimidin-5-yl)-1H-pyrazolo[3,4-c]pyridin-1-yl)acetyl)-5-methyl-2-azabicyclo[3.1.0]hexane-3-carboxamide], the IC50 was under 1000 nM.
On the same count and under the same terms, to `CC(=O)c1nn(CC(=O)N2[C@H](C(=O)Nc3nc(Br)ccc3CN(C)C)C[C@@]3(C)C[C@@H]23)c2cc(Cl)c(-c3cnc(C)nc3)cc12` [Compound 399, (1R,3S,5R)-2-(2-(3-acetyl-6-chloro-5-(2-methylpyrimidin-5-yl)-1H-indazol-1-yl)acetyl)-N-(6-bromo-3-((dimethylamino)methyl)pyridin-2-yl)-5-methyl-2-azabicyclo[3.1.0]hexane-3-carboxamide] belongs under 1000 nM.
Still for that read-out and setting: then `CC(=O)c1nn(CC(=O)N2[C@H](C(=O)Nc3nc(Br)ccc3CCCN3CCOCC3)C[C@@]3(C)C[C@@H]23)c2cnc(-c3cnc(C)nc3)cc12` [Compound 400, (1R,3S,5R)-2-(2-(3-Acetyl-5-(2-methylpyrimidin-5-yl)-1H-pyrazolo[3,4-c]pyridin-1-yl)acetyl)-N-(6-bromo-3-(3-morpholinopropyl)pyridin-2-yl)-5-methyl-2-azabicyclo[3.1.0]hexane-3-carboxamide], with under 1000 nM; and `Cc1ncc(-c2cc3c(C(C)O)nn(CC(=O)N4[C@H](C(=O)Nc5nc(Br)ccc5C)C[C@@]5(C)C[C@@H]45)c3cn2)cn1` (stereo partly drawn) [Compound 402, (1R,3S,5R)-N-(6-bromo-3-methylpyridin-2-yl)-2-(2-(3-(1-hydroxyethyl)-5-(2-methylpyrimidin-5-yl)-1H-pyrazolo[3,4-c]pyridin-1-yl)acetyl)-5-methyl-2-azabicyclo[3.1.0]hexane-3-carboxamide], with 1000 to 10000 nM.

The same assay, now with this note: Table 8; Factor D 80 nM, substrate Z-L-Lys-SBz; read-out: IC50.
Take `COC(=O)CCCCCCCCCCCCCCCCC(=O)N[C@@H](CCC(=O)NCCOCCOCC(=O)NCCOCCOCC(=O)NC[C@@]12C[C@@H](C(=O)Nc3nc(Br)ccc3C)N(C(=O)Cn3nc(C(C)=O)c4cc(-c5cnc(C)nc5)cc(C)c43)[C@@H]1C2)C(=O)OC` [Compound 391, Methyl (S)-1-((1R,3S,5R)-2-(2-(3-acetyl-7-methyl-5-(2-methylpyrimidin-5-yl)-1H-indazol-1-yl)acetyl)-3-((6-bromo-3-methylpyridin-2-yl)carbamoyl)-2-azabicyclo[3.1.0]hexan-5-yl)-24-(methoxycarbonyl)-3,12,21,26-tetraoxo-5,8,14,17-tetraoxa-2,11,20,25-tetraazatritetracontan-43-oate]: the IC50 is under 1000 nM.
The same measure, in the same setting: to `CC(=O)c1nn(CC(=O)N2[C@H](C(=O)Nc3nc(Br)ccc3C)C[C@@]3(CNC(=O)COCCOCCNC(=O)COCCOCCNC(=O)CC[C@H](NC(=O)CCCCCCCCCCCCCCCCC(=O)O)C(=O)O)C[C@@H]23)c2c(C)cc(-c3cnc(C)nc3)cc12` [Compound 392, (S)-1-((1R,3S,5R)-2-(2-(3-Acetyl-7-methyl-5-(2-methylpyrimidin-5-yl)-1H-indazol-1-yl)acetyl)-3-((6-bromo-3-methylpyridin-2-yl)carbamoyl)-2-azabicyclo[3.1.0]hexan-5-yl)-24-carboxy-3,12,21,26-tetraoxo-5,8,14,17-tetraoxa-2,11,20,25-tetraazatritetracontan-43-oic acid] belongs under 1000 nM; to `COC(=O)CCCCCCCCCCCCCCCCC(=O)N[C@@H](CCC(=O)NCCOCCOCC(=O)NCCOCCOCC(=O)NCc1ncc(-c2cc(C)c3c(c2)c(C(C)=O)nn3CC(=O)N2[C@H](C(=O)Nc3nc(Br)ccc3C)C[C@@]3(C)C[C@@H]23)cn1)C(=O)O` [Compound 403], under 1000 nM.
Take `CC(=O)c1nn(CC(=O)N2[C@H](C(=O)Nc3nc(Br)ccc3C)C[C@@]3(C)C[C@@H]23)c2c(C)cc(-c3cnc(CNC(=O)COCCOCCNC(=O)COCCOCCNC(=O)CC[C@H](NC(=O)CCCCCCCCCCCCCCCCC(=O)O)C(=O)O)nc3)cc12` [Compound 404]: the IC50 was under 1000 nM.
